Measurements from patent US11478498B2, “Topical pharmaceutical formulations containing a low concentration of benzoyl peroxide in suspension in water and a water-miscible organic solvent” (Dow Pharmaceutical Sciences, Inc., priority 2008, dated 2022).

Assay: Solubility of benzoyl peroxide in organic solvents by HPLC analysis
Type: physicochemical
Conditions: room temperature
Description: An example of a preferred organic solvent for the formulation of the invention is a polyol, also known as a polyhydric alcohol. Representative examples of polyols include glycols and sugar alcohols. Preferred polyols for the formulation of the invention include polyether glycols, such as ethoxydiglycol, and propylene glycol. A preferred water-miscible organic solvent is propylene glycol. The inventors have determined by HPLC analysis that benzoyl peroxide is soluble in 100% propylene glycol at room temperature at a level between 0.2% and 0.3% w/w. A second preferred organic solvent is ethoxydiglycol, such as sold under the tradename Transcutol® (Gattefosse, Saint-Priest, France). It has been determined by HPLC analysis that benzoyl peroxide is soluble in ethoxydiglycol at room temperature at a level of about 4.9%. Another preferred organic solvent is polyethylene glycol, such as PEG 400.

## O=C(OOC(=O)c1ccccc1)c1ccccc1 [benzoyl peroxide]
  Solubility of benzoyl peroxide in ethoxydiglycol: about 4.9%
